“Also recorded” adds a separate entry of the source.
Assays:
GFAP promoter activity = assay: In vivo bioluminescence imaging of GFAP-luc in spinal cord; set-up: species or system mouse; settings: for GFAP promoter activity / GFAP-luc expression (bioluminescence) in spinal cord: GFAP-luc/TDP-43^Wt mice, 3 mg/kg i.p. twice a week for 10 weeks from 30 weeks, 36 and 40 weeks, vs untreated, 3 mg/kg
Description: (§1) To study the in vivo effect of NF-κB inhibition on disease progression, we injected TDP-43^wt; GFAP-luc double transgenic mice with 3 mg/kg body weight of WA twice a week for 10-weeks starting at 30-weeks. […] We used TDP-43^wt; GFAP-luc double transgenic mice because the reporter luciferase (luc) allowed the longitudinal and non-invasive biophotonic imaging with CCD camera of the GFAP promoter activity which is a target of activated NF-κB. To analyse the spatial and temporal dynamics of astrocytes activation/GFAP induction in TDP-43 mouse model, we performed series of live imaging experiments. […] The downregulation of GFAP promoter activity was further confirmed in these mice using GFAP immunofluorescence of spinal cord sections of TDP-43^Wt mice (both drug-treated and untreated) (FIG. 8F). […] Down-regulation of GFAP along with reduction in active p65 levels in withaferin treated mice prompted us to analyse behavioural changes in these mice. […] The withaferin treated mice also had 40% reduction in the number of partially denervated neuromuscular junction (NMJ) (FIGS. 8E&G).
Age matched control non-transgenic animals (n=10) and in TDP-43^Wt (n=10) littermates were injected twice a week with 0.9% saline intra-peritoneally. All the behavioral and imaging experiments were conducted in a double blind manner as such the experimenter had no knowledge of the drug treatment or the genotype of animals.
As previously described^31, 32, the images were gathered using IVIS® 200 Imaging System (CaliperLSXenogen, Alameda, Calif., USA). Twenty-five minutes prior to imaging session, the mice received intraperitoneal (i.p.) injection of the luciferase substrate D-luciferine (150 mg/kg—for mice between 20 and 25 g, […] of a solution of 20 mg/ml of D-luciferine dissolved in 0.9% saline was injected) (CaliperLS-Xenogen).

[1] = test system: NF-κB (phospho-p65^Ser536); assay: Western blot of phospho-p65^Ser536 in challenged neuronal cells; assay type: cell-based, mouse; settings: glutamate and conditioned media challenged neuronal cells; WA
Description: […] is known to modulate p53-p38MAPK dependent apoptosis in neurons, when treated with DNA damage inducing chemicals like camptothecin^34, glutamate excitotoxicity^35 or general bystander mediated killing of neurons by microglia^14. To assess the potential contribution of NF-κB to the death of TDP-43 overexpressing neurons exposed to toxic injury, we prepared cultures of primary cortical neurons and microglia from transgenic mice overexpressing TDP-43^wt or TDP-43 mutants. […] The LDH cytotoxicity was determined 24 hrs later (FIG. 14A). […] We then incubated cortical neurons with the conditioned media from primary microglial culture, which were challenged with LPS at a concentration of 50 ng/ml of media. […] As WA might exert multiple pharmacological actions, we tested a more specific molecular approach for inhibiting NF-κB. Since, activation of NF-κB requires its dissociation from the inhibitory molecule, IκB, we expressed a stable mutant super-repressive form of IκB-α (Ser 32/Ser36-to-alanine mutant; IκB^SR) and evaluated its effects on neuronal death. Cultured cortical neurons from TDP-43 transgenic and non-transgenic mice were transfected with a plasmid construct, expressing IκB^SR, and exposed to either 10 μM glutamate for 30 min or incubated in conditioned media from LPS-stimulated microglia of same genotype. […]

[2] = Detection of Withaferin A in the CSF of mice using HPLC; assay type: in vivo, mouse
Description: FIG. 15. Detection of Withaferin A in the CSF of mice using HPLC. […] For blank samples (B), 0.9% saline was injected in non-transgenic mice. 1.5 hrs after injection, CSF samples from the mice were obtained using […] into the cistern magna. 50 μl of the sample was mixed with 60% ACN 0.1% formic acid, centrifuged and the supernatant was injected into HPLC. […] 1000 ng/ml withaferin-a chemical served as a standard (C). Withaferin retention time was 1.6 mins.

neuromuscular junctions = assay: Neuromuscular junction staining and count; assay type: in vivo, mouse
Description: For monitoring the neuromuscular junctions, 25 mm thick muscle sections were incubated for 1 h in 0.1 M glycine in PBS for 2 h at RT and then stained with Alexa Fluor 594-conjugated α-bungarotoxin (1:2000, Molecular Probes/Invitrogen detection technologies, Carlsbad, Calif., USA) diluted in 3% BSA in PBS for 3 h at RT. After washing in PBS, the muscle sections were blocked in 3% BSA, 10% goat serum and 0.5% Triton X-100 in PBS overnight at 48° C. The next day, the sections were incubated with mouse antineurofilament antibody 160 K (1:2000, Temecula, Calif., USA) and mouse anti-synaptophysin (Dako, Mississauga, ON, Canada) in the same blocking solution overnight at 48° C. After washing for 5 h, muscle sections were incubated with goat anti-mouse Alexa Fluor 488-conjugated secondary antibody (Probes/Invitrogen detection technologies, Carlsbad, Calif., USA) diluted 1:500 in blocking buffer for 3 h at RT. Three hundred neuromuscular junctions were counted per animal sample, discriminating both innervated and denervated junctions as described above. […]

GFAP = GFAP immunofluorescence of spinal cord sections; assay type: in vivo, mouse; settings: GFAP-luc/TDP-43^Wt mice, treated vs untreated
Description: as §1
4% Paraformaldehyde (PFA) fixed spinal cord and brain sections of mice were sectioned and fixed on slides. For immunohistochemistry, tissues were treated with hydrogen-peroxide solution before permeabilisation. […]

TDP-43^G348C mice = assay: Accelerating rotarod in TDP-43^G348C mice; assay type: in vivo, mouse; settings: WA-treated vs untreated TDP-43^G348C mice
Description: Accelerating rotarod analysis was performed in TDP-43^G348C mice at various ages from 8 wk to 52 wk, and time taken by the mice to fall from the rotarod is used as rotarod performance. WA treatment period is marked as drug treatment period. Error bars represent mean±SEM (n=10 each group) (FIG. 25).
Accelerating rotarod was performed on mice at 4 rpm speed with 0.25 rpm/sec acceleration as described elsewhere^30. Mice were subjected to three trials per session and every two weeks.

SMILES: CC1=C(CO)C(=O)O[C@@H]([C@@H](C)[C@H]2CC[C@H]3[C@@H]4C[C@H]5O[C@]56[C@@H](O)C=CC(=O)[C@]6(C)[C@H]4CC[C@]23C)C1 [Withaferin A]
- GFAP promoter activity / GFAP-luc expression (bioluminescence) in spinal cord (GFAP promoter activity): Significant reduction
- GFAP promoter activity / GFAP-luc expression (bioluminescence) in spinal cord (GFAP promoter activity; listed as WA): progressive reduction in GFAP-luc expression
- GFAP luciferase activity after cessation of the drug treatment (GFAP promoter activity; withaferin treated TDP-43 transgenic mice after cessation of treatment): increase in GFAP luciferase activity
- levels of phospho-p65^Ser536 (inhibition of NF-κB) [1]: reduced levels
- Withaferin A in CSF (HPLC) ([2]; 3 mg/kg intra-peritoneally, CSF 1.5 hrs after injection, 8-months old non-transgenic and TDP-43^Wt mice): presence of Withaferin-A
- passage of the blood-brain barrier ([2]; mice, FIG. 15): passes the blood-brain barrier
- reduction in the number of partially denervated neuromuscular junction (NMJ) (neuromuscular junctions; withaferin treated TDP-43^Wt mice vs untreated): 40%
- number of partially denervated muscle (NMJ frequency) (neuromuscular junctions; withaferin treated TDP-43^Wt mice, age-matched untreated 15±5%): 9±4%
- GFAP activation (GFAP immunofluorescence of spinal cord sections) (GFAP): downregulation; also recorded: significantly low GFAP activation
- motor performance (accelerating rotarod, time to fall) (TDP-43^G348C mice): significantly better motor performance

From US10060933B2, “Methods for diagnosis and treatment of amyotrophic lateral sclerosis based on an increased level of interaction between TDP-43 polypeptide and NF-KB P65 polypeptide” (UNIVERSITE LAVAL, priority 2011, dated 2018)
